# Laboratory results taken from patent publication US4284631A, “7-Substituted cephem compounds and pharmaceutical antibacterial compositions containing them” (Fujisawa Pharmaceutical Co., Ltd., priority 1978, dated 1981).
# Counter-ions that a name gives are not always drawn.
# Tests used:
# Experiment in all cases: In vitro antibacterial activity, two-fold agar-plate dilution method
# Type in all cases: cell-based
# Proteus mirabilis 18 = settings: HI-agar, 37° C., 20 hours, read-out: MIC (minimal inhibitory concentration)
# Description: (§1) In vitro antibacterial activity was determined by the two-fold agar-plate dilution method as described below.
# (§2) One loopful of the 100-fold dilution of an overnight culture of each test strain in Trypticasesoy broth was streaked on heart infusion agar (HI-agar) containing graded concentrations of the test compound and incubated at 37° C. for 20 hours. The minimal inhibitory concentration (MIC) was expressed in μg/ml.
# [1] = test system: Staphylococcus aureus 209 P JC-1; settings: 209PJC1, HI-agar, 37° C., 20 hours, read-out: MIC (minimal inhibitory concentration)
# Description: as §1, §2
# [2] = test system: Proteus vulgaris IAM-1025; settings: IAM1025, HI-agar, 37° C., 20 hours, read-out: MIC (minimal inhibitory concentration)
# Description: as §1, §2
# Klebsiella pneumoniae 20 = settings: HI-agar, 37° C., 20 hours, read-out: MIC (minimal inhibitory concentration)
# Description: as §1, §2
# [3] = test system: Escherichia coli NIHJ JC-2; settings: NIHJJC2, HI-agar, 37° C., 20 hours, read-out: MIC (minimal inhibitory concentration)
# Description: as §1, §2
# [4] = test system: Pseudomonus aeruginosa NCTC-10490; settings: HI-agar, 37° C., 20 hours, read-out: MIC (minimal inhibitory concentration)
# Description: as §1, §2
SMILES,MIC (Proteus mirabilis 18),MIC [1],MIC [2],MIC (Klebsiella pneumoniae 20),MIC [3],MIC [4]
"CSCO/N=C(\C(=O)NC1C(=O)N2C(C(=O)O)=CCSC12)c1csc(N)n1 (stereo not drawn) [Compound 4, 7-[2-(2-aminothiazol-4-yl)-2-(methylthiomethoxyimino)acetamido]-3-cephem-4-carboxylic acid (syn isomer)]",0.05 µg/mL,1.56 µg/mL,0.025 µg/mL,0.025 µg/mL,0.05 µg/mL,1.56 µg/mL
"Nc1nc(/C(=N/OCc2ccon2)C(=O)NC2C(=O)N3C(C(=O)O)=CCSC23)cs1 (stereo not drawn) [Compound 6, 7-[2-(2-aminothiazol-4-yl)-2-(3-isoxazolylmethoxyimino)acetamido]-3-cephem-4-carboxylic acid (syn isomer)]",0.1 µg/mL,3.13 µg/mL,0.025 µg/mL,0.025 µg/mL,0.1 µg/mL,1.56 µg/mL
"Nc1nc(/C(=N/OCCO)C(=O)NC2C(=O)N3C(C(=O)O)=CCSC23)cs1 (stereo not drawn) [Compound 2, 7-[2-(2-aminothiazol-4-yl)-2-(2-hydroxyethoxyimino)acetamido]-3-cephem-4-carboxylic acid (syn isomer)]",0.025 µg/mL,12.5 µg/mL,0.025 µg/mL,0.025 µg/mL,0.05 µg/mL,3.13 µg/mL
"NCc1ccc(CO/N=C(\C(=O)NC2C(=O)N3C(C(=O)O)=CCSC23)c2csc(N)n2)cc1 (stereo not drawn) [Compound 5, 7-[2-(2-aminothiazol-4-yl)-2-(4-aminomethylbenzyloxyimino)acetamido]-3-cephem-4-carboxylic acid dihydrochloride (syn isomer)]",0.1 µg/mL,0.78 µg/mL,0.05 µg/mL,0.05 µg/mL,0.1 µg/mL,3.13 µg/mL
"CCOCCO/N=C(\C(=O)NC1C(=O)N2C(C(=O)O)=CCSC12)c1csc(N)n1 (stereo not drawn) [Compound 3, 7-[2-(2-aminothiazol-4-yl)-2-(2-ethoxyethoxyimino)acetamido]-3-cephem-4-carboxylic acid (syn isomer)]",0.2 µg/mL,3.13 µg/mL,0.025 µg/mL,0.025 µg/mL,0.2 µg/mL,1.56 µg/mL
"N#CCO/N=C(\C(=O)NC1C(=O)N2C(C(=O)O)=CCSC12)c1csc(N)n1 (stereo not drawn) [Compound 1, 7-[2-(2-aminothiazol-4-yl)-2-cyanomethoxyiminoacetamido]-3-cephem-4-carboxylic acid (syn isomer)]",0.025 µg/mL,6.25 µg/mL,0.025 µg/mL,0.025 µg/mL,0.05 µg/mL,1.56 µg/mL
